Test results from US20250203808A1, “REFRIGERANTS FOR AND METHODS OF COOLING ELECTRONICS” (HONEYWELL INTERNATIONAL INC., priority 2023, published 2025).
Read-outs that look alike come from different tables or passages of the source.

Assays:
[1] = background, commercial 3M fluids; cited from earlier work
[2] = background, commercial 3M fluids; cited from earlier work; remark: listed apart in the source
[3] = Boiling point determination; format: physicochemical; settings: for boiling point: Table 1, values understood as 'about'; for BP: Table E1
Experimental: (§1) The boiling point (“BP”) and dielectric constant (“Dk”) of HFO-1438ez(E) and HFO-1438ez(Z) were determined and the results are reported below in Table E1. Static dielectric constant for new molecules was calculated using Kirkwood theory as described in papers by Wang and Anderko [P. Wang and A. Anderko, Computation of dielectric constants of solvent mixtures and electrolyte solutions, Fluid Phase Equilibria 186 (2001) 103-122] and Harvey and Lemmon [A. H. Harvey and E. W. Lemmon, Method for estimating dielectric constant of natural gas mixtures, International Journal of Thermophysics 26 (2005) 31-46]. The dielectric property of each of HFO-1438ez(E) and HFO-1438ez(Z) was determined using the Agilent 85070 Dielectric Probe. All measurements were made at ambient pressure and room temperature (approximately 23° C.). Prior to making measurements, the system was calibrated from 1 GHz to 20 GHz with an open circuit, a short circuit, and DI water (@22.4° C.) standard. The result of the calibration is shown in the Table E1 below for DI H2O, and is consistent with DI water at 22.4° C. The accuracy of the probe is given as: Dielectric constant, er′=er′+/−0.05|er*| with er″=er″+/−0.05|er*| and (loss=er″/er′).

[4] = Dielectric constant and dissipation factor, Agilent 85070 Dielectric Probe, 20 GHz; format: physicochemical; settings: values 'about'; for Dielectric Constant (20 GHz): room temperature
Experimental: “Dielectric Constant” means the dielectric constant as measured in accordance with ASTM D150-11 at room temperature at 20 giga hertz (GHz).
as §1

Row | boiling point [3] [°C] | BP [3] [°C] | Dielectric Constant (20 GHz) [4] | Dissipation Factor (20 GHz) [4] | SMILES | boiling point [1] [°C] | dielectric constant [2]
1 | – | – | – | – | FC(F)(F)N1C(F)(F)C(F)(F)OC(F)(F)C1(F)F [FC-3284] | 50 | –
2 | – | – | – | – | COC(F)(F)C(F)(F)C(F)(F)F [HFE7000, 1-methoxyheptafluoropropane (C3F7OCH3)] | 34 | 7.4
3 | 28 | 30 | 2.43 | 0.09 | F/C=C/C(F)(C(F)(F)F)C(F)(F)F [HFO-1438ezy(E), (E)-1,3,4,4,4-pentafluoro-(3-trifluoromethyl)-but-1-ene] | – | –
4 | 55 | 55 | 7.8 | – | F/C=C\C(F)(C(F)(F)F)C(F)(F)F [HFO-1438ezy(Z), (Z)-1,3,4,4,4-pentafluoro-(3-trifluoromethyl)-but-1-ene] | – | –
